The NIST ThermoML archive (doi:10.1021/acs.jced.8b01204)
± gives the expanded uncertainty stated by the source.

Test: xn = mol fraction of the nth substance listed
Conditions: 101 kPa, Liquid; for speed of sound: Single path-length method; for mass density: Vibrating tube method

C[N+]1(CC2CO2)CCCC1=O.O=C([O-])c1ccccc1O (stereo not given) [1-methyl-1-(oxiran-2-ylmethyl)-2-oxopyrrolidinium salicylate] + CC(=O)O
Conditions | mass density, 293.15 K [kg/m3] | mass density, 298.15 K [kg/m3] | mass density, 303.15 K [kg/m3] | mass density, 308.15 K [kg/m3] | mass density, 313.15 K [kg/m3] | speed of sound, 293.15 K [m/s] | speed of sound, 298.15 K [m/s] | speed of sound, 303.15 K [m/s] | speed of sound, 308.15 K [m/s] | speed of sound, 313.15 K [m/s]
x1 = 0.0301 | 1080.9 ± 3 | 1075.6 ± 3 | 1070.3 ± 3 | 1065 ± 3 | 1059.7 ± 3 | 1250 ± 6.1 | 1232.7 ± 6.1 | 1215.5 ± 6.1 | 1198.6 ± 6.1 | 1181.8 ± 6.1
x1 = 0.0701 | 1103.7 ± 3 | 1098.6 ± 3 | 1093.5 ± 3 | 1088.4 ± 3 | 1083.3 ± 3 | 1310.7 ± 6.1 | 1294 ± 6.1 | 1277.3 ± 6.1 | 1260.7 ± 6.1 | 1244.4 ± 6.1
x1 = 0.1001 | 1117.2 ± 3 | 1112.3 ± 3 | 1107.3 ± 3 | 1102.4 ± 3 | 1097.4 ± 3 | 1349.7 ± 6.1 | 1333.2 ± 6.1 | 1316.5 ± 6.1 | 1300.1 ± 6.1 | 1283.9 ± 6.1
x1 = 0.2001 | 1147.6 ± 3 | 1143 ± 3 | 1138.3 ± 3 | 1133.6 ± 3 | 1128.8 ± 3 | 1441 ± 6.1 | 1424.6 ± 6.1 | 1408.1 ± 6.1 | 1391.8 ± 6.1 | 1375.7 ± 6.2
x1 = 0.3003 | 1166.3 ± 3 | 1161.7 ± 3 | 1157.2 ± 3 | 1152.7 ± 3 | 1148.9 ± 3 | 1496.7 ± 6.1 | 1480.2 ± 6.2 | 1463.7 ± 6.2 | 1447.5 ± 6.2 | 1431 ± 6.2
x1 = 0.4013 | 1178.7 ± 3.1 | 1174.2 ± 3.1 | 1169.7 ± 3.1 | 1165.5 ± 3.1 | 1161 ± 3.1 | 1535 ± 6.2 | 1515.8 ± 6.2 | 1497.4 ± 6.2 | 1480.2 ± 6.2 | 1463.1 ± 6.2
x1 = 0.5017 | 1187.3 ± 3.1 | 1183 ± 3.1 | 1178.7 ± 3.1 | 1174.5 ± 3.1 | 1170.1 ± 3.1 | 1561.4 ± 6.2 | 1541.8 ± 6.2 | 1523.2 ± 6.2 | 1504.9 ± 6.2 | 1488.8 ± 6.2
x1 = 0.6002 | 1193.9 ± 3.1 | 1189.6 ± 3.1 | 1185.4 ± 3.1 | 1181.3 ± 3.1 | 1177 ± 3.1 | 1582.2 ± 6.2 | 1562.5 ± 6.2 | 1542.9 ± 6.2 | 1528.5 ± 6.2 | 1515.4 ± 6.2
x1 = 0.7019 | 1199.1 ± 3.1 | 1194.9 ± 3.1 | 1190.7 ± 3.1 | 1186.7 ± 3.1 | 1182.5 ± 3.1 | 1600 ± 6.2 | 1582 ± 6.2 | 1565.2 ± 6.2 | 1548.8 ± 6.2 | 1532.6 ± 6.2
x1 = 0.8024 | 1203.6 ± 3.2 | 1199.3 ± 3.1 | 1195.1 ± 3.1 | 1191 ± 3.1 | 1186.7 ± 3.1 | 1617.3 ± 6.3 | 1600 ± 6.3 | 1583 ± 6.3 | 1566.5 ± 6.3 | 1550.4 ± 6.3
x1 = 0.901 | 1207 ± 3.2 | 1202.7 ± 3.2 | 1198.6 ± 3.2 | 1194.5 ± 3.2 | 1190.2 ± 3.2 | 1626.8 ± 6.3 | 1609.2 ± 6.3 | 1592.2 ± 6.3 | 1575.7 ± 6.3 | 1559.5 ± 6.3
x1 = 1 | 1209.8 ± 3.2 | 1205.5 ± 3.2 | 1201.3 ± 3.2 | 1197.2 ± 3.2 | 1193 ± 3.2 | 1634.2 ± 6.3 | 1614.5 ± 6.3 | 1595.7 ± 6.3 | 1577.6 ± 6.3 | 1559.5 ± 6.3
